Assay results from PMC7231327 (2020).
Each block holds one compound with its values, some of them ahead of it.

Experiments:
[1] = system: H-DNA 1 (DNA, aptamer) GCGGGCGGTTGTATAGCGGTTTTTTCTCACACGAATTCATCTGAC; assay: competitive fluorescent lateral flow strip; settings: for Cross-reactivity: T-DNA competes, [AMP] at IC50/[M] at IC50, AMP = 100
[2] = system: H-DNA 1' (DNA, aptamer) GCGGGCGGTTGTATAGCGGTTTTTTCTCACACGAATTCATCTGAC; assay: competitive fluorescent lateral flow strip; settings: T-DNA competes on T line; AMP 150 and 200 ng/L; slight signal change

- Cross-reactivity ([1]; n = 3, RSD 2.34%): 0.67%
Compound: CN(C)[C@@H]1C(=O)C(C(N)=O)=C(O)[C@@]2(O)C(=O)C3=C(O)c4c(O)cccc4[C@@](C)(O)[C@H]3C[C@@H]12

- Cross-reactivity ([1]; n = 3, RSD 2.76%): 0.88%
Compound: CN(C)[C@@H]1C(=O)C(C(N)=O)=C(O)[C@@]2(O)C(=O)C3=C(O)c4c(O)cccc4[C@@](C)(O)[C@H]3[C@H](O)[C@@H]12

- Cross-reactivity ([1]; n = 3, RSD 3.89%): 5.53%
Compound: NC[C@H]1O[C@H](O[C@H]2[C@H](O)[C@@H](O[C@H]3O[C@H](CO)[C@@H](O)[C@H](N)[C@H]3O)[C@H](N)C[C@@H]2N)[C@H](O)[C@@H](O)[C@@H]1O

The remaining lines, values behind:

Compound: O=C(N[C@H](CO)[C@H](O)c1ccc([N+](=O)[O-])cc1)C(Cl)Cl
- Cross-reactivity ([1]; n = 3, RSD 4.34%): 6.60%

Compound: CC1(C)S[C@@H]2[C@H](NC(=O)[C@H](N)c3ccccc3)C(=O)N2[C@H]1C(=O)O
- binding ([1]; T-DNA (complementary strand) competes on T line, AMP 50-300 ng/L): yes
- binding [2]: weak

Compound: CC1(C)S[C@@H]2[C@H](NC(=O)Cc3ccccc3)C(=O)N2[C@H]1C(=O)O
- Cross-reactivity ([1]; n = 3, RSD 3.56%): 7.40%
